From patent US10377731B2, “Compositions and methods for cancer treatment” (Boston Biomedical, Inc., priority 2007, dated 2019)
pIC50: −log10 of the molar value. Like-named read-outs stand apart in the source and are kept apart here. Blank lines part the entries; values can stand above or below the molecule they belong to.

Tests used:
[1] = system: Paca2 human pancreatic cancer cells; assay: Colony formation, Paca2 cells, single drugs and combinations; type: cell-based
Description: (§1) Paca2 human pancreatic cancer cells, A549 human lung cancer cells, and HepG2 human liver cancer cells (American Type Culture Collection) were cultured in Dulbecco's modified Eagle's medium containing 10% fetal bovine serum, 100 units/mL penicillin, 100 μg/mL streptomycin, and 2 mM L-glutamine. […] Erlotinib was from American Custom Chemicals (San Diego, Calif.). Gemcitabine was from Eli Lilly (Indianapolis, Ind.) in an aqueous 20 mM stock solution. Sorafenib was Mass.). Unless otherwise noted all compounds were solubilized in DMSO at 10 mM and aliquoted at −20° C. Exponentially growing Paca2 pancreatic cancer cells were seeded at 1,000 cells per well in 6-well plates and allowed to attach for 24 hours. Increasing concentrations of individual drugs and those in combination were then added to the media for another 24 hours. After 24 hours exposure, the drug was removed and fresh media was added for the next 10-14 days, allowing for colony formation. Cells were fixed and stained with GIEMSA (Gibco BRL). […] Results are an average of duplicate experiments. Alternatively, MTT assays were performed 72 hours post-treatment in A549 and HepG2 cells.

Stat3 [2] = assay: Stat3-luciferase (Stat3-Luc) reporter assay, OSM-stimulated HeLa cells; type: cell-based; settings: for pIC50: Homo sapiens, HeLa cells, compound 30 minutes before 25 ng/ml oncostatin M, read 6 hours later, read-out: IC50 in Stat3-Luc assays
Description: Luciferase Reporter Assay: HeLa Cells were co-transfected with Stat3-luciferase (Stat3-Luc) reporter vector (Panomics, Fremont, Calif.) and Renilla luciferase (Promega, Madison, Wis.) using Lipofectamine 2000 as described by the manufacturer (Invitrogen). Following transfection, cells were maintained in medium containing 0.5% FBS for 24 hours. Cells were then treated with the indicated compound for 30 minutes prior to the addition of 25 ng/ml oncostatin M (OSM) (R&D Systems, Minneapolis, Minn.) to the medium. 6 hours following OSM addition, cells were harvested and levels of firefly and renilla luciferase were measured using the Dual-Glo Luciferase Assay System as described by the manufacturer (Promega).
Inhibition of Stat3 transcription activity. Compounds were tested for their ability to inhibit Stat3 transcription activation activity in cells using a Stat3-luciferase (Stat3-luc) reporter construct. Cells transfected with Stat3-luc were cultured in reduced serum medium prior to addition of indicated compound for 30 minutes. Cells were then stimulated with 25 ng/ml oncostatin M (OSM) for 6 hours followed by detection of Stat3-luc reporter activity. […] AG490, a known inhibitor of the Jak-Stat pathway, was included as a positive control for Stat3 inhibition.

Stat3 [3] = assay: Stat3 DNA binding assay (EMSA), HeLa nuclear extract; type: biochemical; settings: HeLa nuclear extract with constitutively activated Stat3
Description: STAT3 DNA Binding Assay: Electrophoretic mobility shift assay (EMSA) was performed as described by the manufacturer (Li-Cor Biosciences, Lincoln, Nebr.). Briefly, nuclear extracts were made from HeLa cells using the NucBuster Protein Extraction Kit as described by the manufacturer (EMD Biosciences, San Diego, Calif.). 5 μg of nuclear extract was pre-incubated with the indicated dose of indicated compound for 30 minutes prior to a 15-minute incubation with the IR700-labeled consensus Stat3 oligonucleotide. Samples were then electrophoresed on a polyacrylamide gel and directly scanned using the Odyssey infrared imaging system (Li-Cor Biosciences). For the enzyme-linked immunosorbent assay (ELISA), 5 μg of nuclear extract was preincubated with indicated concentration of indicated compound for 30 minutes prior to the addition of biotinylated oligo (5′-Biotin-[…]-3′ SEQ ID NO. 1). Stat3-DNA complexes were then captured on streptavidin coated 96 well plates (Pierce, Rockford, Ill.). Bound complexes were then incubated with Stat3 polyclonal antibody (Santa Cruz Biotechnology, Santa Cruz, Calif.) followed by anti-rabbit HRP conjugated secondary antibody (GE Healthcare, Pittsburgh, Pa.). Bound antibody was then visualized by addition of TMB substrate (Pierce) and absorbance measured at 450 nm.
Inhibition of Stat3 DNA-binding activity. Nuclear extracts from HeLa cells, which contain constitutively activated Stat3 as detected by phosphorylation at the tyrosine 705 residue, were used to perform Stat3 EMSAs to monitor Stat3 DNA binding activity. Nuclear extracts were incubated with indicated compound prior to incubation with IR700-labeled Stat3 consensus oligonucleotide. Binding of Stat3 to the oligonucleotide was monitored by gel electrophoresis and detection using a LiCor Odyssey infrared scanner.

[4] = system: A549 human lung cancer cells; assay: 72 hour MTT, A549 cells, single drugs and combinations; type: cell-based; settings: for inhibition at 2.5 µM: read-out: X (% Inhibition)
Description: (§2) Cell Viability Determination: For 3-(4,5 dimethylthiazol-2-yl)-2,5-diphenyltetrazolium (MTT) (Sigma-Aldrich, St. Louis, Mo.) analysis, cells were plated in 96 well plates at 10,000 cells per well. 24 hours after plating, compound was added to cells at indicated doses. […] following compound addition, MTT was added to each well (0.5 mg/ml, final concentration) and plates were incubated for an additional 2 hours at 37° C. Medium was then aspirated and the formazan product was solubilized in 100 μl of isopropyl alcohol. The absorbance of each well was measured at 570 nm using a microplate reader.
as §1

[5] = system: HepG2 human liver cancer cells; assay: 72 hour MTT, HepG2 cells, single drugs and combinations; type: cell-based
Description: as §2, §1

CD44high CSCs (FaDu) = assay: Sphere assay (CSC spherogenesis); type: cell-based, human; settings: applied at approximately ten times their IC50 concentrations for cell death
Description: CD44^high cells were isolated by FACS according to the methods described in Ponti et al, with slight modification. Briefly, after trypsinization and recovery of cells for 30 minutes at 37° C. in growth media, cells were pelleted at 400×g and were resuspended in PBS with 2% FBS and 1 mM EDTA at 1×10^6 cells/mL. Cells were then incubated on ice with a 1:100 dilution of CD44-FITC (BD Biosicences, San Diego, Calif.) for 15 minutes. Alternatively, CD24-PE (BD Bioscences, San Diego, Calif.) (1:100) was utilized for negative selection. After washing three times, cells were resuspended at 2×10^6/mL and passed through a […] mesh before sorting
Sphere assay: A reliable method of measuring the self-renewal capacity of cell population if the ability to be cultured as spheres in the absence of serum or attachment. CD44^high FaDu or Hoechst side population cancer stem cells were cultured in ultra low attachment plates in cancer stem cell media (DMEM/F12, B27 Neurobasal supplement, 20 ng/ml EGF, 10 ng/ml FGF, 4 μg/ml insulin, and 0.4% BSA) to allow spheres formation. Typically, sphere formation was evaluated by microscopy after 10-14 days in culture and spheres with >50 cells were scored.
Identification of compounds that inhibit CSC spherogenesis in vitro. One of the hallmarks of cancer stem cells is their ability to self-renew. A reliable method of measuring the self-renewal capacity of cell populations is the ability to be cultured as spheres in the absence of serum or attachment. To compare the ability of compound 401 to other targeted and chemotherapeutic agents, FACS-isolated CD44^high CSCs were grown as spheres for 72 hours before being challenged with a panel of therapeutic agents. […] Tarceva, Sutent, and Gleevec were added at approximately three times their reported therapeutic concentrations.

[6] = 72 hour MTT A549 cells, X alone 2.5 μM

Structure (SMILES): Nc1ccn([C@@H]2O[C@H](CO)[C@@H](O)C2(F)F)c(=O)n1 [Gemcitabine]
inhibition at 0.033 µM ([1]; Homo sapiens, PaCa-2, X alone 33 nM): 36%

pIC50 (Stat3 [2]): ~6.12 | Inhibition of Stat3 DNA-binding activity (in words) (Stat3 [3]): can inhibit
Structure (SMILES): CC(=O)c1cc2c(o1)C(=O)c1cc(Cl)ccc1C2=O [Compound 416, 2-Acetyl-7-Chloro-naphtho[2,3-b]furan-4,9-dione]

pIC50 (Stat3 [2]): ~5.70
Structure (SMILES): CC(O)c1cc2c(o1)C(=O)c1ccccc1C2=O (stereo not shown) [Compound 301, 2-(1-hydroxyethyl)-naphtho[2,3-b]furan-4,9-dione]

Structure (SMILES): CS(=O)(=O)CCNCc1ccc(-c2ccc3ncnc(Nc4ccc(OCc5cccc(F)c5)c(Cl)c4)c3c2)o1 [Lapatinib]
inhibition at 6.75 µM ([1]; Homo sapiens, PaCa-2, X alone 6.75 μM): 27% | inhibition at 2.5 µM [4, 6]: 66%

Structure (SMILES): COc1cc([C@@H]2c3cc4c(cc3[C@@H](O[C@@H]3O[C@@H]5CO[C@@H](C)O[C@H]5[C@H](O)[C@H]3O)[C@H]3COC(=O)[C@H]23)OCO4)cc(OC)c1O [Etoposide]
inhibition at 0.66 µM ([1]; Homo sapiens, PaCa-2, X alone 660 nM): 58%

Structure (SMILES): CNC(=O)c1cc(Oc2ccc(NC(=O)Nc3ccc(Cl)c(C(F)(F)F)c3)cc2)ccn1 [Sorafenib]
inhibition at 0.625 µM ([5]; X alone 625 nM): 34% | inhibition at 2.5 µM ([5]; X alone 2.5 μM): 51% | inhibition at 2 µM ([1]; Homo sapiens, PaCa-2, X alone 2 μM): 66% | inhibition at 2.5 µM [4, 6]: 40%

Structure (SMILES): COc1cccc2c1C(=O)c1c(O)c3c(c(O)c1C2=O)C[C@@](O)(C(=O)CO)C[C@@H]3O[C@H]1C[C@H](N)[C@H](O)[C@H](C)O1 [Doxorubicin]
inhibition at 0.0125 µM ([5]; X alone 12.5 nM): 23% | Effect on CSC sphere proliferation (CD44high CSCs (FaDu)): resistant | inhibition at 0.016 µM ([1]; Homo sapiens, PaCa-2, X alone 16 nM): 89% | inhibition at 0.0125 µM ([4]; 72 hour MTT A549 cells, X alone 12.5 nM): 29%

Structure (SMILES): CCN(CC)CCNC(=O)c1c(C)[nH]c(/C=C2\C(=O)Nc3ccc(F)cc32)c1C [Sunitinib]
inhibition at 12 µM ([1]; Homo sapiens, PaCa-2, X alone 12 μM): 52% | inhibition at 2.5 µM [4, 6]: 75%

Structure (SMILES): O=C(c1ccccc1)c1cc2cc3ccccc3cc2s1 [Compound 1001, reference compound]
Inhibition of OSM-stimulated Stat3 reporter activity (in words) (Stat3 [2]; at a much higher concentration (FIG. 4, right panel)): did not inhibit

Structure (SMILES): C#Cc1cccc(Nc2ncnc3cc(OCCOC)c(OCCOC)cc23)c1 [Erlotinib]
inhibition at 16 µM ([1]; Homo sapiens, PaCa-2, X alone 16 μM): 26% | inhibition at 2.5 µM ([4]; A549, 72 h): 43%

Structure (SMILES): CC(=O)O[C@@]12CO[C@@H]1C[C@H](O)[C@@]1(C)C(=O)[C@H](O)C3=C(C)[C@@H](OC(=O)[C@H](O)[C@@H](NC(=O)OC(C)(C)C)c4ccccc4)C[C@@](O)([C@@H](OC(=O)c4ccccc4)[C@H]21)C3(C)C [Docetaxel, reference compound]
Effect on CSC sphere proliferation (CD44high CSCs (FaDu)): resistant | inhibition at 0.00033 µM ([1]; Homo sapiens, PaCa-2, X alone 0.33 nM): 48%

pIC50 (Stat3 [2]): ~6.12 | Inhibition of Stat3 DNA-binding activity (in words) (Stat3 [3]): can inhibit
Structure (SMILES): CC(=O)c1cc2c(o1)C(=O)c1cc(F)ccc1C2=O [Compound 418, 2-Acetyl-7-Fluoro-naphtho[2,3-b]furan-4,9-dione]

Structure (SMILES): N.N.O=C([O-])C1(C(=O)[O-])CCC1.[Pt+2] [Carboplatin]
X (% Inhibition) ([1]; X alone 16 μM): 43%
